Values after ≈ are worked out from the molar mass of the structure shown.
Assays:
histamine-induced asthma = assay: Antiasthmatic effect on histamine-induced asthma in guinea pigs (latency period); format: in vivo; details: X±s, n = 5; for Post-administration latency period: 1 mg/kg oral gavage, sixty minutes after administration, histamine hydrochloride spray, no asthma within 8 minutes counted as 8 minutes
Description: The guinea pigs were placed in a polymethyl methacrylate bell jar and a histamine hydrochloride solution was sprayed ultrasonically (0.8 mg/mL) for 40 seconds. The time point at which the guinea pigs developed asthma was recorded. The time of convulsion and fall was taken as the latency period. Guinea pigs with a latency period exceeding 180 seconds were not selected. […] The guinea pigs were administered by oral gavage at a dose of 2 mL/kg·bw. Sixty minutes after the administration, the guinea pigs were placed in bell jars, and histamine hydrochloride solution was sprayed under the same conditions as in the previous selection. The latency period for the onset of asthma was recorded. […] The results were processed statistically.

[1] = system: isolated ileal smooth muscle; assay: Muscle tone of isolated ileal smooth muscle of guinea pigs, compound alone; details: Table 3, no histamine, X±s, n = 8; for Smooth muscle tone (g) After administration: 5 minutes after adding the drug; for Antispasmodic percentage (%): relative to tone before adding compound, 5 min
Description: (§1) The guinea pig was knocked unconscious with a wooden stick, and the abdomen was immediately dissected to separate the ileum about 15 cm in length. The contents of the intestinal segment were flushed with Tyrode's solution and placed in Tyrode's solution at a constant temperature of 37°C for later use, and oxygen was supplied simultaneously. The experimental intestinal tract (1 cm in length) was cut and placed into 20 ml of Tyrode's solution at a constant temperature of 37°C with a continuous oxygen supply. One end of the intestine was fixed on the ventilation hook and the other end was connected to the muscle tone transducer and led to the computer interface. The muscle tone value of the ileal smooth muscle was recorded with a BL system. The experiment was carried out after the intestinal segment contraction became stable.
After the ileum contraction curve stabilized, the tone values before adding the drug were recorded, then the drug or DMSO was added, and the average tone value of the ileum contraction curve at that point was recorded 5 minutes later. The operation was repeated 8 times. The antispasmodic percentage was calculated according to the following formula. Antispasmodic percentage =; (Tone value before adding subject compound−Tone value after adding subject compound)/(Tone value before adding subject compound) × 100% [formula]

[2] = Muscle tone of isolated ileal smooth muscle of guinea pigs contracted with histamine; details: Table 4; 3 minutes after adding 0.05 mL compound at maximum histamine contraction; x±s, n = 8
Description: as §1
(§2) After the ileal peristalsis curve stabilized, the tone values before adding the compound were recorded, and then 0.05 mL of histamine was added. […] The operation was repeated 8 times. The antispasmodic percentage was calculated using the following equation. Antispasmodic percentage; = (Tone value after adding histamine−Tone value after adding subject compound)/(Tone value after adding histamine) × 100% [formula]

histamine = assay: as above; details: Table 4, x±s, n = 8; for Antispasmodic percentage (%): relative to tone after adding histamine, 3 min; for Smooth muscle tone (g) After addition of histamine: after 0.05 mL of histamine, before compound; for Smooth muscle tone (g) Before administration: before histamine and compound
Description: as §1, §2

[3] = Solubility in water, methanol and isopropanol; details: for solubility Water: in water; for solubility Isopropanol: in isopropanol; for solubility Methanol: in methanol
Description: The solubility in water, methanol, and isopropanol of the compounds of the present disclosure and the comparative compounds were measured separately.

[4] = Accelerated stability test; format: physicochemical; details: 40°C ± 2°C, relative humidity 75% ± 5%; for remaining at 730 h / remaining at 1460 h / remaining at 2190 h / remaining at 4380 h: storage 75% relative humidity, read-out: Content

Structure (SMILES) | Post-administration latency period (histamine-induced asthma) [s] | Smooth muscle tone (g) After administration [1] [g] | Antispasmodic percentage (%) [1] [%] | Smooth muscle tone (g) After administration [2] [g] | Antispasmodic percentage (%) (histamine) | solubility Water [3] | solubility Isopropanol [3] [mg/mL] | also measured
OCCN1CCC(=C2c3ccc(Cl)cc3CCc3cccnc32)CC1 [Hydroxyethyl desloratadine, hydroxyethyl desloratadine, reference compound] | 284.11 ± 59.10 | 1.30 ± 0.30 | 23.97±10.32 | 1.43 ± 0.41 | 57.94±11.45 | Practically insoluble | – | –
OCCCN1CCC(=C2c3ccc(Cl)cc3CCc3cccnc32)CC1 [Hydroxypropyl desloratadine, hydroxypropyl desloratadine, reference compound] | 288.33 ± 58.12 | 1.28 ± 0.25 | 24.70±13.43 | 1.41 ± 0.42 | – | Practically insoluble | – | –
O=P(O)(O)OCCCCCN1CCC(=C2c3ccc(Cl)cc3CCc3cccnc32)CC1 [Compound IV-7] | 367.32 ± 53.01 | 1.16 ± 0.27 | 31.76±18.66 | 1.15 ± 0.23 | 66.76±19.32 | 287 mg/mL (≈ 602 mM) | 4 (≈ 8.39 mM) | Content ([4]; Month 0): 99.6%; Description ([4]; Month 0): White powder; Related substances ([4]; Month 0): 0.03%; Description ([4]; Month 1): White powder; Related substances ([4]; Month 1): 0.06%; Description ([4]; Month 2): White powder; Related substances ([4]; Month 2): 0.09%; Description ([4]; Month 3): White powder; Related substances ([4]; Month 3): 0.13%; Description ([4]; Month 6): White powder; Related substances ([4]; Month 6): 0.28%; remaining at 730 h ([4]; Month 1): 99.6%; remaining at 1460 h ([4]; Month 2): 99.5%; remaining at 2190 h ([4]; Month 3): 99.5%; remaining at 4380 h ([4]; Month 6): 99.3%; solubility Methanol [3]: 27 mg/mL (≈ 56.6 mM)
OCCCCCN1CCC(=C2c3ccc(Cl)cc3CCc3cccnc32)CC1 [Hydroxypentyl desloratadine, hydroxypentyl desloratadine, reference compound] | 280.29 ± 58.19 | 1.24 ± 0.22 | 28.73±11.32 | 1.41 ± 0.42 | – | Practically insoluble | – | –
OCCCCN1CCC(=C2c3ccc(Cl)cc3CCc3cccnc32)CC1 [Hydroxybutyl desloratadine, hydroxybutyl desloratadine, reference compound] | 279.71 ± 54.91 | 1.30 ± 0.23 | 23.53±12.32 | 1.44 ± 0.44 | – | Practically insoluble | – | Smooth muscle tone (g) After addition of histamine (histamine): 3.41 ± 0.92 g; Smooth muscle tone (g) Before administration (histamine): 1.73 ± 0.12 g
OCCCCCCN1CCC(=C2c3ccc(Cl)cc3CCc3cccnc32)CC1 [Hydroxyhexyl desloratadine, hydroxyhexyl desloratadine, reference compound] | 283.84 ± 58.88 | 1.26 ± 0.23 | 26.31±13.96 | 1.43 ± 0.43 | – | Practically insoluble | – | –
O=P(O)(O)OCCCCCN1CCC(=C2c3ccc(Cl)cc3CCc3cccnc32)CC1 [Compound IV-6] | 361.94 ± 53.19 | 1.14 ± 0.25 | 34.10±18.93 | 1.18 ± 0.21 | 65.80±19.03 | 367 mg/mL (≈ 769 mM) | 5 (≈ 10.5 mM) | solubility Methanol [3]: 30 mg/mL (≈ 62.9 mM)
O=P(O)(O)OCCCCCN1CCC(=C2c3ccc(Cl)cc3CCc3cccnc32)CC1 [Compound III-13] | 366.81 ± 53.10 | 1.21 ± 0.26 | 32.02±16.85 | 1.17 ± 0.20 | 65.58±18.20 | 32 mg/mL (≈ 67.1 mM) | 25 (≈ 52.4 mM) | Pre-administration latency period (histamine-induced asthma; baseline before dosing, histamine hydrochloride spray 0.8 mg/mL for 40 seconds): 104.38 ± 50.27 s; Smooth muscle tone (g) Before administration ([1]; before adding the drug): 1.78 ± 0.25 g; Smooth muscle tone (g) After addition of histamine (histamine): 3.40 ± 0.98 g; Smooth muscle tone (g) Before administration (histamine): 1.80 ± 0.16 g
O=P(O)(O)OCCCCN1CCC(=C2c3ccc(Cl)cc3CCc3cccnc32)CC1 [Compound III-10] | 370.80 ± 51.23 | 1.15 ± 0.26 | – | 1.22 ± 0.19 | 65.24±18.39 | – | 25 (≈ 54 mM) | –
Clc1ccc2c(c1)CCc1cccnc1C2=C1CCNCC1 [Desloratadine, desloratadine, reference compound] | – | – | – | – | – | Practically insoluble | – | –
O=P(O)(O)OCOCCN1CCC(=C2c3ccc(Cl)cc3CCc3cccnc32)CC1 [Compound IV-8] | 360.12 ± 52.01 | 1.19 ± 0.29 | 30.81±18.93 | 1.19 ± 0.28 | 65.50±19.11 | – | – | Content ([4]; Month 0): 99.6%; Description ([4]; Month 0): White powder; Related substances ([4]; Month 0): 0.03%; Description ([4]; Month 1): White powder; Related substances ([4]; Month 1): 0.06%; Description ([4]; Month 2): White powder; Related substances ([4]; Month 2): 0.09%; Description ([4]; Month 3): White powder; Related substances ([4]; Month 3): 0.14%; Description ([4]; Month 6): White powder; Related substances ([4]; Month 6): 0.28%; remaining at 730 h ([4]; Month 1): 99.6%; remaining at 1460 h ([4]; Month 2): 99.5%; remaining at 2190 h ([4]; Month 3): 99.5%; remaining at 4380 h ([4]; Month 6): 99.3%
O=P(O)(O)OCCCN1CCC(=C2c3ccc(Cl)cc3CCc3cccnc32)CC1 [Compound III-7] | 382.57 ± 51.11 | – | 29.88±18.88 | – | 65.36±17.20 | – | 22 (≈ 49 mM) | –
O=P(O)(O)OCCCN1CCC(=C2c3ccc(Cl)cc3CCc3cccnc32)CC1 [Compound IV-3] | 375.50 ± 47.99 | – | 32.00±19.55 | – | 64.11±19.66 | – | 1 (≈ 2.23 mM) | solubility Methanol [3]: 21 mg/mL (≈ 46.8 mM); solubility ([3]; water): 390 mg/mL (≈ 869 mM)

Reference: patent publication EP4559923A1, “ANTIHISTAMINE COMPOUND, AND PREPARATION METHOD THEREFOR AND USE THEREOF” (HC Synthetic Pharmaceutical Co., Ltd., priority 2022, dated 2024)
